From the supplement of paper PMC8882468

Columns and labels:
[1] = tested on: HCI-015 (organoid from a triple-negative breast cancer xenograft); assay: CTG-3D luminescence at 96 h relative to day-0 seeding control (ratio to day 0); higher = more growth / less cytotoxicity; PDxO 3D drug screen (set 2), 96 h, CTG-3D normalised to day-0 seeding control.
[2] = tested on: HCI-025 (organoid from a breast cancer xenograft); assay: CTG-3D luminescence at 96 h relative to day-0 seeding control (ratio to day 0); higher = more growth / less cytotoxicity; PDxO 3D drug screen, 96 h, CTG-3D normalised to day-0 seeding control.
[3] = tested on: HCI-016 (organoid from a triple-negative breast cancer xenograft); assay: as above
[4] = tested on: HCI-003.E2 (organoid from an ER-positive breast cancer xenograft); assay: as above
[5] = tested on: HCI-005.E2 (organoid from a breast cancer xenograft with a HER2-positive history); assay: as above
[6] = tested on: HCI-019 (organoid from a triple-negative breast cancer xenograft); assay: as above
[7] = tested on: HCI-011.E2 (organoid from an ER-positive breast cancer xenograft); assay: as above

CCOc1ccn(-c2ccc(F)cc2)c(=O)c1C(=O)Nc1ccc(Oc2ccnc(N)c2Cl)c(F)c1 [ASLAN002]
CTG-3D luminescence at 96 h, [1]
Conditions	12.5 pM	0.00025 µM	0.005 µM	0.1 µM	1 µM	10 µM	100 µM	625 fM
days in culture: 333	1.68	1.64	0.866	1.08	0.841	0.711	0.501	1.57
days in culture: 355	1.87	3.41	1.5	1.76	1.71	2.18	0.883	2.05
days in culture: 369	2.27	1.62	2.12	1.97	2.23	1.38	1.18	1.94

NC(=O)Nc1cc(-c2cccc(F)c2)sc1C(=O)N[C@H]1CCCNC1 [AZD7762]
CTG-3D luminescence at 96 h
Conditions	12.5 pM	0.00025 µM	0.005 µM	0.1 µM	1 µM	10 µM	100 µM	625 fM
[2], days in culture: 172	3.17	1.83	2.73	0.677	0.305	0.0747	-0.00404	2.61
[2], days in culture: 209	1.54	2.2	1.92	0.713	0.29	0.0922	-0.00311	1.39
[2], days in culture: 218	1.78	1.97	2.04	1.33	0.198	0.105	-0.00375	1.77
[3], days in culture: 153	3.14	1.64	2.54	0.266	0.0727	0.081	0.000259	2.62
[3], days in culture: 172	2.35	1.91	1.78	0.194	0.0623	0.0531	-3.08e-05	1.66
[3], days in culture: 190	1.53	1.19	1.71	0.131	0.0574	0.0481	0.00171	1.32
[3], days in culture: 199	1.5	1.46	1.56	0.129	0.0407	0.0245	-0.00099	1.57
[6], days in culture: 110	2.48	1.62	1.33	1.06	0.333	0.13	-0.000246	2.15
[6], days in culture: 131	2.56	4.24	2.81	2.99	0.541	0.193	0.00562	4.04
[6], days in culture: 152	1.82	2.74	2.11	1.11	0.437	0.149	0.00479	3.06
[7], days in culture: 74	2.04	2.16	1.88	1.68	1.62	1.33	0.00724	1.92

CTG-3D luminescence at 96 h
Conditions	12.5 pM	0.00025 µM	0.005 µM	0.1 µM	1 µM	10 µM	100 µM	625 fM
[4]	2.21	2.59	1.96	1.78	1.12	0.769	0.0016	2.21
[5]	1.82	1.75	1.8	1.6	0.674	0.164	0.00356	1.95
[7]	1.57	1.86	1.56	1.77	1.66	1.32	0.00993	1.71
